# Target: T1, PRKG1 (Homo sapiens, UniProt Q13976)
# T1 construct: purchased Thermo Fisher Scientific (Life Technologies) SelectScreen
# Assay: SelectScreen Z'LYTE
# Type: biochemical
# Outline: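 NU5455 was profiled across the SelectScreen Broad panel of kinase activity and binding assays. Z'LYTE reactions such as CSF1R ran at apparent Km ATP, while the Adapta CAMK1 assay used ATP listed as 10. Values are given as percent.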
# T1 sequence (Q13976 whole entry): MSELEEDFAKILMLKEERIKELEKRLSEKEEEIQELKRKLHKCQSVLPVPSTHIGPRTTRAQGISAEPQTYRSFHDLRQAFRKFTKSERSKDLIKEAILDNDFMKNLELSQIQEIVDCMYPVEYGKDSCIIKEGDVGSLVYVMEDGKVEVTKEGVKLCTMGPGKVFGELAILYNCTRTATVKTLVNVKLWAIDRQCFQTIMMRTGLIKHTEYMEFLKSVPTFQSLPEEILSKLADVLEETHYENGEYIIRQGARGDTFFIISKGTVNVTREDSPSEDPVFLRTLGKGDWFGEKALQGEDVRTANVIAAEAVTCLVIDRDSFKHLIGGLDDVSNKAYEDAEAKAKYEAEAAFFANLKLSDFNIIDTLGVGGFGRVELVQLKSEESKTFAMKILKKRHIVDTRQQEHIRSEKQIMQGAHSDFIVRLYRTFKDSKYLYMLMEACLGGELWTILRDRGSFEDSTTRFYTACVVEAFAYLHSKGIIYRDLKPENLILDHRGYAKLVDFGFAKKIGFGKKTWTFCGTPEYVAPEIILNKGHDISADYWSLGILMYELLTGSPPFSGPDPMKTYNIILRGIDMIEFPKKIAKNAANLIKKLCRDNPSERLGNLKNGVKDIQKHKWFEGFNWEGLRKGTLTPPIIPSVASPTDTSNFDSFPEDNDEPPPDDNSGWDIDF
structure (smiles),measurement,value
CN(C(=O)CN1CCOCC1)c1ccc2sc3c(-c4cccc5c(=O)cc(N6CC7CCC(C6)O7)oc45)cccc3c2c1 [NU5455],inhibition at 1 µM,-2.7%

# Source: PMC6934184, “Selective DNA-PKcs inhibition extends the therapeutic index of localized radiotherapy and chemotherapy” (The Journal of Clinical Investigation, 2019)
